{"source": "patent EP1257552B1", "about": "“XANTHINE DERIVATIVES, INTERMEDIATES AND USE FOR TREATING OSTEOPOROSIS” (Aventis Pharma S.A., priority 2000, dated 2001)", "format_in_all_cases": "in vivo", "key": {"[1]": {"system": "OS TIBIA", "assay": "Bone mineral density (DEXA) of the tibia in the ovariectomised rat osteopenia model, preventive treatment", "conditions": "once daily, 5 days/week for 4 weeks, (BMD treated - BMD OVX)/(BMD SHAM - BMD OVX) x 100", "description": "(§1) L'impact osseux de ces dérivés xanthine a été évalué sur un modèle d'ostéopénie, la rate ovariectomisée à l'âge de 3 mois, afin de déterminer ses effets sur la masse osseuse, et sur l'activité de formation et de résorption osseuse. Les animaux sont traités en préventif.\n(§2) Sur ce modèle d'ostéopénie l'effet de ces dérivés xanthine est comparé à celui de la PTH • Produit à tester : composé de l'exemple 1 • véhicule(s) : méthylcellulose 0,5 % ou sérum physiologique • dose(s) : 10 mg/kg pour le produit. la PTH est administrée à la dose de 10 µg ou 25 µg/kg/j par voie sous cutanée • nombre d'administrations : une fois/jour; 5 jours/semaine pendant 4 semaines • voie d'administration : voie orale pour le produit. La PTH est administrée par voie sous cutanée • volume : 1 ml/kg p o et s c • délai entre l'injection et le sacrifice : 24 heures • nombre d'administrations : 20\n(§3) Des rats femelles âgées de 3 mois et pesant environ 250-300 g sont ovariectomisées sous anesthésie à l'Imalgène 1000, à la dose de 100 mg/kg par voie intrapéritonéale (i.p) et sous un volume de 1 ml/kg. Ils reçoivent également du Nembutal (3 mg/kg i.p. sous un volume de 0,3 ml/kg). Les animaux sont répartis en groupes de 8 rats. Après incision latérale, les plans cutanés et musculaires sont sectionnés. L'exérèse de chaque ovaire se fait après ligature de l'oviducte. Les rats \"SHAM\" sont anesthésiés dans les mêmes conditions. Après incision des plans cutanés et musculaires, chaque ovaire est exposé puis replacé in situ.\n(§4) Les effets des produits sont déterminés après un traitement préventif. Les traitements débutent 24 heures après ovariectomie. Les animaux sont traités pendant 4 semaines, et se répartissent de la façon suivante : • un groupe témoin Sham recevant le ou les véhicules • un groupe témoin OVX recevant le ou les véhicules • OVX + dérivé xanthine • OVX + PTH\nLa masse osseuse (BMD ou Bone Mineral Density = densité minérale osseuse) est mesurée par absorptiométrie biphotonique à rayons X à double énergie (DEXA). Les mesures sont réalisées sur les os excisés et débarrassés de tous les tissus mous. […]"}, "[2]": {"system": "UTERUS", "assay": "Uterus weight in the ovariectomised rat osteopenia model", "conditions": "4 weeks, weight increase in % of uterus weight of OVX animals receiving solvent only", "description": "as §1, §2, §3, §4\nLes utérus sont prélevés. Ces derniers sont pesés. L'augmentation du poids est exprimée, en % du poids de l'utérus des animaux ovariectomisés ne recevant que le solvant. • au niveau osseux : […]"}, "[3]": {"system": "Cholestérol", "assay": "Serum cholesterol level in the ovariectomised rat osteopenia model", "conditions": "4 weeks, decrease of serum cholesterol in % versus OVX animals receiving solvent only", "description": "as §1, §2, §3, §4\nAu terme des 4 semaines de traitement, les animaux sont décapités par guillotine. Les sérums recueillis après centrifugation sont conservés à -20°C. […]"}}}
{"compound": "O=c1c2[nH]cnc2n(-c2ccccc2)c(=O)n1Cc1ccncc1", "note": "[ex 1, chlorhydratede 3,7-dihydro-3-phényl-1-(4-pyridinylméthyl)-1H-purine-2,6-dione]", "values": [{"measurement": "OS TIBIA Densité %", "setting": "[1]; 10 mg/kg po", "value": 60, "unit": "%"}, {"measurement": "UTERUS Poids %", "setting": "[2]; 10 mg/kg po", "value": 15, "unit": "%"}, {"measurement": "Cholestérol %", "setting": "[3]; 10 mg/kg po", "value": "Pas d'effet"}]}
{"compound": "PTH", "values": [{"measurement": "OS TIBIA Densité %", "setting": "[1]; 10 µg/kg sc", "value": 69, "unit": "%"}, {"measurement": "OS TIBIA Densité %", "setting": "[1]; 25 µg/kg sc", "value": 100, "unit": "%"}, {"measurement": "UTERUS Poids %", "setting": "[2]; 10 µg/kg sc", "value": "Pas d'effet"}, {"measurement": "UTERUS Poids %", "setting": "[2]; 25 µg/kg sc", "value": 9, "unit": "%"}, {"measurement": "Cholestérol %", "setting": "[3]; 10 µg/kg sc", "value": "Pas d'effet"}, {"measurement": "Cholestérol %", "setting": "[3]; 25 µg/kg sc", "value": "Pas d'effet"}]}
